Experimental data reported in patent US20240391870A1 (Arcturus Therapeutics, Inc., priority 2023, published 2024).
Like-named read-outs stand apart in the source and are kept apart here.

Assays:
[1] = tested on: hEPO; assay: hEPO mRNA expression evaluation (hEPO-LNPs); assay type: in vivo, Balb/c mice; settings: serum hEPO after 6 hr; for EPO exprssn (ng/mL) 0.1 mpk: 0.1 mpk i.v.; for EPO exprssn (ng/mL) 0.03 mpk: 0.03 mpk i.v.
[2] = tested on: factor VII; assay: Factor VII knock down evaluation (LNP with FVII siRNA); assay type: in vivo, Balb/C mice; settings: for FVII KD % 0.01 mpk: 0.01 mpk i.v.; for FVII KD % 0.01 mpk / FVII KD % 0.03 mpk: plasma FVII after 48 h vs saline control; for FVII KD % 0.03 mpk: 0.03 mpk i.v.
Outline: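 Female Balb/C mice, 7–8 weeks old, received FVII siRNA lipid nanoparticles intravenously at 0.03 or 0.01 mg/kg. Plasma was collected 48 h later and FVII protein measured by chromogenic assay at 405 nm against a control plasma calibration curve. Levels are relative to saline-treated controls.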

[3] = In vivo biodegradability assay (lipid in liver); settings: mouse liver, 48 h
Method: In vivo biodegradability assay was performed to assess the biodegradability of lipids in the LNP. Briefly, mice were injected with either 0.1 or 0.03 mg/Kg dose and after 24 or 48 hours mice livers were collected. To measure the concentration of lipids in the mouse liver, liver samples were homogenized in appropriate buffer in 1-10 dilution and mixed with the same amount of stabilized plasma. The samples were then mixed with organic solvents spiked with internal standard to precipitate proteins. After centrifugation, supernatant was diluted further with organic solvent before sample analysis by LC-MS. In LC-MS analysis, positive electrospray ionization was used, and multiple reaction monitoring (MRM) parameters were set up to specifically target the lipid analyte and internal standard. Calibration standards were prepared in stabilized plasma and mixed with same amount of homogenization buffer before protein precipitation. Quality control samples with known amounts of lipid was prepared in blank liver homogenate to monitor the precision and accuracy of the assay.

[4] = Mouse plasma stability; assay type: in vitro ADME, CD-1 mouse; settings: 1 uM lipid
Outline: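 Lipid at 1 μM starting concentration incubated in stirred CD-1 mouse plasma (sodium heparin) at 37° C.; samples at 0–120 min quenched with acetonitrile/methanol plus internal standard. LC-MS peak area relative to T=0 gave % remaining; T1/2 from first-order decay.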

[5] = Measured pKa in the indicated formulation; settings: for pKa: EPO: measured in EPO formulation; for pKa: FVII: measured in FVII formulation
Method: Measured pKa values were determined based on the pH measured in the indicated formulation (i.e., EPO or FVII formulation).

[6] = Lipid nanoparticle size, PDI and encapsulation; assay type: physicochemical; settings: Table 3
[7] = Lipid nanoparticle size, PDI and encapsulation; assay type: physicochemical; settings: Table 3; for Size (nm): lipid nanoparticle; for EE %: lipid nanoparticle encapsulation
Method: In the context of nucleic acids, full encapsulation may be determined by performing a membrane-impermeable fluorescent dye exclusion assay, which uses a dye that has enhanced fluorescence when associated with nucleic acid. Encapsulation is determined by adding the dye to a lipid formulation, measuring the resulting fluorescence, and comparing it to the fluorescence observed upon addition of a small amount of nonionic detergent. Detergent-mediated disruption of the lipid layer releases the encapsulated nucleic acid, allowing it to interact with the membrane-impermeable dye. Nucleic acid encapsulation may be calculated as E=(I0−I)/I0, where I and I0 refer to the fluorescence intensities before and after the addition of detergent.

SMILES | EPO exprssn (ng/mL) 0.1 mpk ([1]; Table 2) [ng/mL] | FVII KD % 0.01 mpk ([2]; Table 2) [%] | FVII KD % 0.03 mpk ([2]; Table 2) [%] | In vivo degradability (ng/tissue) at 48h 0.03 mpk ([3]; Table 1) | In vivo degradability (ng/tissue) at 48h 0.1 mpk ([3]; Table 1) | In vivo degradability (ng/tissue) at 48h 0.03 mpk ([3]; Table 2) | In vivo degradability (ng/tissue) at 48h 0.1 mpk ([3]; Table 2) | Percent remaining in mouse plasma after 2 h ([4]; Table 1, mouse plasma 37 C) [%] | Percent remaining in mouse plasma after 2 h ([4]; Table 2, mouse plasma 37 C) [%] | pKa ([5]; EPO formulation) | pKa ([5]; FVII formulation) | pKa: FVII ([5]; Table 2) | EPO exprssn (ng/mL) 0.1 mpk ([1]; Table 1) [ng/mL] | FVII KD % 0.01 mpk ([2]; Table 1) [%] | FVII KD % 0.03 mpk ([2]; Table 1) [%] | PDI [6] | Size (nm) [7] [nm] | EE % [7] [%] | also measured
CC1CCC(CC(=O)OCC(COC(=O)CC2CCC(C)CC2)OC(=O)CCCN(CCCC(=O)OC(COC(=O)CC2CCC(C)CC2)COC(=O)CC2CCC(C)CC2)C(=O)SCCCN(C)C)CC1 (centres unmarked) [LIPID 15, ((4,4′-((((3-(Dimethylamino)propyl)thio)carbonyl)azanediyl)bis(butanoyl))bis(oxy))bis(propane-2,1,3-triyl)tetrakis(2-(4-methylcyclohexyl)acetate)] | 1899 | 66.8 | 89.7 | <340 ng/tissue | <340 ng/tissue | <340 ng/tissue | <340 ng/tissue | 256 | 100 | 6.57 | 6.45 | 6.45 | – | – | – | – | – | – | pKa: EPO ([5]; Table 2): 6.57
CCC1CCC(C(=O)OCC(COC(=O)C2CCC(CC)CC2)OC(=O)CCCN(CCCC(=O)OC(COC(=O)C2CCC(CC)CC2)COC(=O)C2CCC(CC)CC2)C(=O)SCCCN(C)C)CC1 (centres unmarked) [LIPID 16, ((4,4′-((((3-(Dimethylamino)propyl)thio)carbonyl)azanediyl)bis(butanoyl))bis(oxy))bis(propane-2,1,3-triyl)tetrakis(4-ethylcyclohexane-1-carboxylate)] | 2088 | 58 | 88 | <340 ng/tissue | <340 ng/tissue | <340 ng/tissue | <340 ng/tissue | 40 | 40 | 6.5 | 6.45 | – | 6358 | 58 | 88 | – | – | – | EPO exprssn (ng/mL) 0.03 mpk ([1]; Table 1): 2088 ng/mL; pKa: EPO ([5]; Table 1): (6.50/; pKa: FVII ([5]; Table 1): 6.45)
CC(CC1CCCCC1)C(=O)OCC(COC(=O)C(C)CC1CCCCC1)OC(=O)CCCN(CCCC(=O)OC(COC(=O)C(C)CC1CCCCC1)COC(=O)C(C)CC1CCCCC1)C(=O)SCCCN(C)C (centres unmarked) [LIPID 17, ((4,4′-((((3-(Dimethylamino)propyl)thio)carbonyl)azanediyl)bis(butanoyl))bis(oxy))bis(propane-2,1,3-triyl)tetrakis(3-cyclohexyl-2-methylpropanoate)] | 1082 | 55 | 81 | BLOQ | BLOQ | BLOQ | BLOQ | – | 100 | 6.35 | 6.35 | (6.35/6.35) | 1555 | 55 | 81 | – | – | – | EPO exprssn (ng/mL) 0.03 mpk ([1]; Table 1): 1082 ng/mL; pKa: EPO ([5]; Table 1): (6.35/
CCCCCCC(C)C(=O)OCC(COC(=O)C(C)CCCCCC)OC(=O)CCCN(CCCC(=O)OC(COC(=O)C(C)CCCCCC)COC(=O)C(C)CCCCCC)C(=O)SCCCN(C)C (centres unmarked) [LIPID 18, ((4,4′-((((3-(Dimethylamino)propyl)thio)carbonyl)azanediyl)bis(butanoyl))bis(oxy))bis(propane-2,1,3-triyl)tetrakis(2-methyloctanoate)] | 1081 | 60 | 88 | <340 ng/tissue | 639 ng/tissue | <340 ng/tissue | 639 ng/tissue | 100 | 100 | 6.44 | 6.49 | 6.49 | 1081 | 60 | 88 | – | – | – | pKa: EPO ([5]; Table 2): 6.44
CN(C)CCCSC(=O)N(CCCC(=O)OC(COC(=O)CCc1ccc(-c2ccccc2)cc1)COC(=O)CCc1ccc(-c2ccccc2)cc1)CCCC(=O)OC(COC(=O)CCc1ccc(-c2ccccc2)cc1)COC(=O)CCc1ccc(-c2ccccc2)cc1 [Lipid 42, ((4,4′-((((3-(dimethylamino)propyl)thio)carbonyl)azanediyl)bis(butanoyl))bis(oxy))bis(propane-2,1,3-triyl)tetrakis(3-([1,1′-biphenyl]-4-yl)propanoate)] | – | – | – | – | – | – | – | – | – | – | – | – | – | – | – | 0.086 | 100.4 | 88.2 | –
CN(C)CCCSC(=O)N(CCCC(=O)OC(COC(=O)CCc1ccc2ccccc2c1)COC(=O)CCc1ccc2ccccc2c1)CCCC(=O)OC(COC(=O)CCc1ccc2ccccc2c1)COC(=O)CCc1ccc2ccccc2c1 [Lipid 44, ((4,4′-((((3-(dimethylamino)propyl)thio)carbonyl)azanediyl)bis(butanoyl))bis(oxy))bis(propane-2,1,3-triyl)tetrakis(3-(naphthalen-2-yl)propanoate)] | – | – | – | – | – | – | – | – | – | – | – | – | – | – | – | 0.134 | 113.1 | 85.7 | –
CC1CCC(CCC(=O)OCC(C)(COC(=O)CCC2CCC(C)CC2)COC(=O)CCN(CCC(=O)OCC(C)(COC(=O)CCC2CCC(C)CC2)COC(=O)CCC2CCC(C)CC2)C(=O)NCCCN(C)C)CC1 (centres unmarked) [Lipid 47, (((3,3′-((((3-dimethylamino)propyl)carbamoyl)azanediyl)bis(propanoyl))bis(oxy))bis(methylene))bis(2-methylpropane-2,1,3-triyl)tetrakis(3-(4-methylcyclohexyl)propanoate)] | – | – | – | – | – | – | – | – | – | – | – | – | – | – | – | 0.089 | 98.26 | 98.9 | –
CC1CCC(CCC(=O)OCC(C)(COC(=O)CCC2CCC(C)CC2)COC(=O)CCN(CCC(=O)OCC(C)(COC(=O)CCC2CCC(C)CC2)COC(=O)CCC2CCC(C)CC2)C(=O)N(C)CCCN(C)C)CC1 (centres unmarked) [Lipid 48, (((3,3′-((((3-dimethylamino)propyl)methylcarbamoyl)azanediyl)bis(propanoyl))bis(oxy))bis(methylene))bis(2-methylpropane-2,1,3-triyl)tetrakis(3-(4-methylcyclohexyl)propanoate)] | – | – | – | – | – | – | – | – | – | – | – | – | – | – | – | 0.065 | 103.2 | 96.2 | pKa [5]: 7.18
CC1CCC(CCC(=O)OCC(C)(COC(=O)CCC2CCC(C)CC2)COC(=O)CCN(CCC(=O)OCC(C)(COC(=O)CCC2CCC(C)CC2)COC(=O)CCC2CCC(C)CC2)C(=O)CCCCN(C)C)CC1 (centres unmarked) [Lipid 49, (((3,3′-((5-(dimethylamino)pentanoyl)azanediyl)bis (propanoyl))bis(oxy))bis(methylene))bis(2-methylpropane-2,1,3-triyl)tetrakis(3-(4-methylcyclohexyl)propanoate)] | – | – | – | – | – | – | – | – | – | – | – | – | – | – | – | 0.028 | 97.23 | 98.9 | FVII KD % @ 0.03 mg/kg ([2]; Table 3, 0.03 mg/kg): 3.57%; pKa [5]: 7.5
